Laboratory results from US20240010646A1, “Urea Co-Crystal of Apixaban, and Preparation Method Therefor” (CHENGDU EASTON BIOPHARMACEUTICALS CO., LTD., priority 2021, published 2024).
Converted amounts (≈) assume the structure as drawn. Read-outs that look alike come from different tables or passages of the source. Each block holds one molecule with its values, some of them ahead of it.

What was measured:
[1] = Equilibrium solubility test (saturated solutions, external standard method); type: physicochemical
[2] = Stability test (high temperature, light irradiation, long-term and accelerated storage); type: physicochemical
[3] = In vivo pharmacokinetic test in rat, single oral administration, plasma LC/MS/MS; design: species or system SD rats; conditions: for AUClast / Cl_F_obs / Cmax / MRT / T1/2 / Tmax / AUC(0-t) / half-life: corn oil suspension, 4 mL/kg
Description: 18 SD rats with 9 male rats and 9 female rats, weighing 220-240 g, purchased by Chengdu Ensiweier Biotechnology Co., Ltd. from Hunan SJA Laboratory Animal Co., Ltd, License: SCXK (Xiang) 2019-0004.
After the test drugs were prepared into […] uniform suspensions with corn oil, they were immediately administered orally to rats at 4 mL/kg, and 0.1 mL of blood was sampled from the jugular vein before the administration and 15 min, 30 min, 1 h, 2 h, 3 h, 4 h, 5 h, 6 h, 7 h, 8 h and 24 h after the administration, placed in EDTA-K2 tubes and centrifuged at 3000 r/min for 10 min. The plasma was separated and stored by freezing at −80° C. in refrigerator.
50 μL of plasma was taken and evenly mixed with 5 μL of working solution or blank diluent, 150 μL of the internal-standard acetonitrile-containing precipitant was added thereto, which was shaken with vortex for 2 min, and centrifuged at 12000 r/min for 10 min. 2 μL of Supernatant was taken and mixed with 200 μL of pure water: acetonitrile (1:1), and then the resultant sample was injected with a volume of 3 μL for analysis.

[4] = female rats, listed as The urea co-crystal A
[5] = male rats, listed as The urea co-crystal A
[6] = female rats, listed as Crystalline form N-1
[7] = female, Sprague-Dawley (SD), rat, plasma, po, 1.25 mg/kg, female rats
[8] = male, Sprague-Dawley (SD), rat, plasma, po, 1.25 mg/kg, male rats

solubility ([1]; hydrochloric acid pH 1.0 (0.1N), 25° C.): 48.62 µg/mL
solubility ([1]; hydrochloric acid pH 1.0 (0.1N), 37° C.): 57.33 µg/mL
solubility ([1]; phosphate buffer pH 6.8, 37° C.): 42.74 µg/mL
solubility ([1]; phosphate buffer, 25 °C, pH 6.8, aqueous buffer, thermodynamic from solid, phosphate buffer pH 6.8, 25° C., read-out: Solubility): 37.2 µg/mL
solubility ([1]; pure water, 25° C.): 55.78 µg/mL
solubility ([1]; pure water, 37° C.): 67.98 µg/mL
Purity % ([2]; 25 ± 2° C., 60 ± 5% RH, 6 months): 99.92%
Purity % ([2]; 25 ± 2° C., 60 ± 5% RH, Start): 99.93%
Purity % ([2]; 40 ± 2° C., 75 ± 5% RH, 6 months): 99.92%
Purity % ([2]; 40 ± 2° C., 75 ± 5% RH, Start): 99.93%
Purity % ([2]; High Temperature (60° C.), 1 month): 99.92%
Purity % ([2]; High Temperature (60° C.), Start): 99.93%
Purity % ([2]; Light Irradiation, 1 month): 99.93%
Purity % ([2]; Light Irradiation, Start): 99.93%
Crystalline form stability ([2]; all study conditions): good crystalline form stability
Increase of bioavailability compared with crystalline form N-1 ([3]; female rats): 21%
Increase of bioavailability compared with the urea co-crystal IV from HEC Pharm Co., Ltd ([3]; female rats): 44.98%
AUClast [3, 4]: 33636 ± 8113 ng·h/mL
Cl_F_obs [3, 4]: 7.2 ± 1.9 mL/day/kg
Cmax [3, 4]: 4653 ± 763 ng/mL
MRT [3, 4]: 5.55 ± 0.61 h
T1/2 [3, 4]: 4.49 ± 0.10 h
Tmax [3, 4]: 1.08 ± 0.72 h
Increase of bioavailability compared with crystal form N-1 ([3]; male rats): 29.36%
Increase of bioavailability compared with the urea co-crystal IV from HEC Pharm Co., Ltd ([3]; male rats): 49.94%
AUClast [3, 5]: 25567 ± 14447 ng·h/mL
Cl_F_obs [3, 5]: 10.8 ± 4.8 mL/day/kg
Cmax [3, 5]: 7970 ± 4475 ng/mL
MRT [3, 5]: 4.16 ± 0.41 h
T1/2 [3, 5]: 5.53 ± 2.98 h
Tmax [3, 5]: 1.00 ± 0.00 h
SMILES: COc1ccc(-n2nc(C(N)=O)c3c2C(=O)N(c2ccc(N4CCCCC4=O)cc2)CC3)cc1 [Co-crystal A]

solubility ([1]; hydrochloric acid (0.1N), 25 °C, pH 1, simulated gastric fluid, thermodynamic from solid, hydrochloric acid pH 1.0 (0.1N), 25° C., read-out: Solubility): 31.4 µg/mL (≈ 68.4 µM)
solubility ([1]; hydrochloric acid (0.1N), 37 °C, pH 1, simulated gastric fluid, thermodynamic from solid, hydrochloric acid pH 1.0 (0.1N), 37° C., read-out: Solubility): 38.4 µg/mL (≈ 83.6 µM)
solubility ([1]; phosphate buffer pH 6.8, 25° C.): 22.09 µg/mL (≈ 48.1 µM)
solubility ([1]; phosphate buffer, 37 °C, pH 6.8, aqueous buffer, thermodynamic from solid, phosphate buffer pH 6.8, 37° C., read-out: Solubility): 29.4 µg/mL (≈ 63.9 µM)
solubility ([1]; pure water, 25 °C, water, thermodynamic from solid, pure water, 25° C., read-out: Solubility): 36.7 µg/mL (≈ 79.8 µM)
solubility ([1]; pure water, 37 °C, water, thermodynamic from solid, pure water, 37° C., read-out: Solubility): 49.2 µg/mL (≈ 107 µM)
Cl_F_obs [3, 6]: 13.4 mL/day/kg
Tmax [3, 6]: 5.83 ± 3.75 h
AUC(0-t) [3, 7]: 27800 ± 13000 ng·h/mL
half-life [3, 7]: 6.83 h
Cmax ([3]; female, Sprague-Dawley (SD), rat, plasma, po, 1.25 mg/kg, female rats, read-out: Cmax): 2570 ± 999 ng/mL
MRT ([3]; female, Sprague-Dawley (SD), rat, plasma, po, 1.25 mg/kg, female rats, read-out: MRT): 7.37 ± 1.79 h
Cl_F_obs ([3]; male rats, listed as Crystalline form N-1): 15.4 ± 7.68 mL/day/kg
AUC(0-t) [3, 8]: 19800 ± 14000 ng·h/mL
half-life [3, 8]: 5.05 ± 1.43 h
Cmax ([3]; male, Sprague-Dawley (SD), rat, plasma, po, 1.25 mg/kg, male rats, read-out: Cmax): 4090 ± 3250 ng/mL
MRT ([3]; male, Sprague-Dawley (SD), rat, plasma, po, 1.25 mg/kg, male rats, read-out: MRT): 4.78 ± 0.75 h
Tmax ([3]; male, Sprague-Dawley (SD), rat, plasma, po, 1.25 mg/kg, male rats, read-out: Tmax): 1 ± 0.87 h
SMILES: COc1ccc(-n2nc(C(N)=O)c3c2C(=O)N(c2ccc(N4CCCCC4=O)cc2)CC3)cc1 [N-1, 1-(4-methoxyphenyl)-7-oxo-6-(4-(2-oxopiperidin-1-yl)phenyl)-4,5,6,7-tetrahydr o-1H-pyrazolo[3,4-c]pyridine-3-carboxamide, reference compound]
